Source: patent publication US20200371122A1, “BIOMARKER FOR SENESCENT CELLS” (Buck Institute for Research on Aging, priority 2017, published 2020)

Assays:
[1] = test system: IL-6 secretion in senescent cells; test: IL-6 ELISA on conditioned media of IR-induced senescent cells treated with COX-2/ALOX5 inhibitors; type: cell-based, human; conditions: SEN(IR) IMR-90, inhibitor for 10 days
Protocol: (§1) Human fetal lung fibroblasts (IMR-90) were cultured in Dulbecco's modified eagle medium (DMEM) supplemented with 10% FBS and penicillin/streptomycin. LL 29 (AnHa) cells were obtained from the ATCC and growth to confluence using the ATCC protocol, but were subcultured as described for IMR-90 before initiation of all experiments. Quiescence was induced by replacing culture media with media containing 0.2% FBS. MCF-7 and MDA-MB-231 breast cancer cells were cultured in RPMI supplemented with 10% FBS and penicillin/streptomycin. All cells were cultured at 3% O2, and used between 25 and 40 population doublings. All cells were mycoplasma free.
Senescence was induced by irradiation with 10 Gy of ionizing radiation. Non-senescent controls (proliferating or quiescent) were placed in the irradiator for an identical period of time without turning on the irradiator. Oncogene-induced senescence was induced via lentiviral overexpression of HRAS^V12, as described previously (Wiley et al. (2016) Cell Metab. 23: 303-314).
3×10^4 cells in 12-well plates were treated as indicated in the text, and cultured in 0.5-1 ml serum-free DMEM for 24 hr. CM were collected and clarified at 2,000×g for 10 min. Supernatants were transferred to a tube; cells were trypsinized and counted. CM (2.5 μl) were analyzed by bead-based ELISAs (AlphaLISA, Perkin-Elmer) as instructed by the manufacturer and normalized to cell number.

[2] = test system: IMR-90 fibroblasts; type: cell-based, human
Protocol: as §1
RNA was extracted from cells or tissues using commercially available kits (Isolate II—Bioline for cells; Direct-zol—Zymo for tissues) according to the manufacturer's instructions. cDNA synthesis was performed using a High Capacity cDNA Reverse Transcription Kit (Thermo Fisher) according to the manufacturer's instructions. Quantitative PCR was performed on a LightCycler 480 II (Roche) using primers and probes designed for the Universal Probe Library. Primers and probes used for human transcripts were ACTB: 5′-CCAACCGCGAGAAGATGA (SEQ ID NO:1), 5′-TCCATCACGATGCCAGTG (SEQ ID NO:2), Probe #64; TUBA: 5′-cttcgtctccgccatcag (SEQ ID NO:3), 5′-ttgccaatctggacacca (SEQ ID NO:4), Probe #58; ALOX5: 5′-[…] (SEQ ID NO:5), 5′-[…] (SEQ ID NO:6), Probe #64; ALOX5AP: 5′-ggtctgcggggctacttt (SEQ ID NO:7), 5′-[…] (SEQ ID NO:8), Probe #18; ALOX12: 5′-[…] (SEQ ID NO:9), 5′-agccaggtcgtcaggag (SEQ ID NO:10), Probe #32; ALOX15: 5′-[…] (SEQ ID NO:11), 5′-[…] (SEQ ID NO:12), Probe #76; ALOX15B: 5′-[…] (SEQ ID NO:13), 5′-actgggaggcgaagaagg (SEQ ID NO:14), Probe #51; AKR1C1: 5′-catgcctgtcctgggattt (SEQ ID NO:15), 5′-[…] (SEQ ID NO:16), Probe #49; AKR1C2: 5′-ctatgcgcctgcagaggt (SEQ ID NO:17), 5′-[…] (SEQ ID NO:18), Probe #31; AKR1C3: 5′-[…] (SEQ ID NO:19), 5′-[…] (SEQ ID NO:20), Probe #78; CYSLTR2: 5′-[…] (SEQ ID NO:21), 5′-[…] (SEQ ID NO:22), Probe #18; DPEP1: 5′-gacgtcctgaggctggtg (SEQ ID NO:23), 5′-[…] (SEQ ID NO:24), Probe #9 (SEQ ID NO:25), ELOVL2: 5′-[…] (SEQ ID NO:26), 5′-[…] (SEQ ID NO:27), Probe #53; ELOVL4: 5′-catttggcccatggattc (SEQ ID NO:28), 5′-[…] (SEQ ID NO:29), Probe #31; ELOVL5: 5′-cccttccatgcgtccata (SEQ ID NO:30), 5′-[…] (SEQ ID NO:31), Probe #31; EPHX2: 5′-ttctgctggacaccctgaa (SEQ ID NO:32), 5′-[…] (SEQ ID NO:33), Probe #45; GPX4: 5′-ttcccgtgtaaccagttcg (SEQ ID NO:34), 5′-[…] (SEQ ID NO:35), Probe #36; LTA4H: 5′-ctgctctcacggtccagtc (SEQ ID NO:36), 5′-[…] (SEQ ID NO:37), Probe #64; LTBR2: 5′-[…] (SEQ ID NO:38), 5′-[…] (SEQ ID NO:39), Probe #33; LTC4S: 5′-[…] (SEQ ID NO:40), 5′-[…] (SEQ ID NO:41), Probe #18; PTGDS: 5′-[…] (SEQ ID NO:42), 5′-[…] (SEQ ID NO:43), Probe #36; PTGES: 5′-agagatgcctgcccacag (SEQ ID NO:44), 5′-tggccaccacgtacatctt (SEQ ID NO:45), Probe #4; PTGES2: 5′-[…] (SEQ ID NO:46), 5′-[…] (SEQ ID NO:47), Probe #49; PTGES3 (SEQ ID NO:48), 5′-[…] (SEQ ID NO:49), 5′-[…] (SEQ ID NO:50), Probe #48; PTGIS: 5′-[…] (SEQ ID NO:51), 5′-[…] (SEQ ID NO:52), Probe #45; PTGR1: 5′-atgatggggcagcaagtg (SEQ ID NO:53), 5′-cccatcagaaatggagtgc (SEQ ID NO:54), Probe #64; PTGS1: 5′-[…] (SEQ ID NO:55), 5′-gtggtggtccatgttcctg (SEQ ID NO:56), Probe #81; PTGS2: 5′-gatccccagggctcaaac (SEQ ID NO:57), 5′-[…] (SEQ ID NO:58), Probe #61; TBXAS1: 5′-[…] (SEQ ID NO:59), 5′-tgcctcccgtgtgaatct (SEQ ID NO:60), Probe #73; AREG: 5′-[…] (SEQ ID NO:61), 5′-[…] (SEQ ID NO:62), Probe #73; CCL2: 5′-AGTCTCTGCCGCCCTTCT (SEQ ID NO:63), 5′-GTGACTGGGGCATTGATTG (SEQ ID NO:64), Probe #40; CCL27: 5′-[…] (SEQ ID NO:65), 5′-gctgggtggcagtaggaat (SEQ ID NO:66), Probe #18; CXCL1: 5′-[…] (SEQ ID NO:67), 5′-[…] (SEQ ID NO:68), Probe #52; HGF: 5′-[…] (SEQ ID NO:69), 5′-[…]

growth of non-senescent cells [2] | SMILES | lowered IL-6 secretion in senescent cells [1] [%] | number of cells following irradiation ([2]; 5 Gy IR, 10 days) | cell number relative to DMSO-treated SEN(IR) cells ([2]; SEN(IR) cells counted for IL-6 ELISA normalization)
 | CS(=O)(=O)c1ccc(-c2noc(C(F)(F)F)c2-c2ccccc2)cc1 [CAY-10404] | ~70 | significantly increased | increase in cell number
retarded growth | CC(/C=C/c1cccc(Oc2ccc(F)cc2)c1)N(O)C(N)=O (centres unmarked) [BW-B70C] | ~50 |  | 
